Assay results: patent EP4631962A1, “PEPTIDE FOR CARTILAGE REGENERATION, AND USES THEREOF” (Caregen Co., Ltd., priority 2022, dated 2024)
Where a SMILES comes first, the peptide text is derived from it. Where no end group is shown, it is not given here.

Experiments:
[1] = tested on: human-derived chondrocyte cells (C28/I2, human chondrocyte cell line); experiment: CCK-8 assay, cytotoxicity in chondrocytes; format: cell-based; conditions: different concentrations, after 3 days, FIG. 1 and FIG. 2
Description: (§1) The cytotoxicity of Peptide-1 or Peptide-2 upon addition to human-derived chondrocyte cells (C28/I2, human chondrocyte cell line) and human adipose-derived mesenchymal stem cells (AD-MSC) was analyzed using a CCK-8 assay.
Specifically, human-derived chondrocytes were seeded in a 96-well plate at a density of 3 × 10^3 cells/well and cultured in DMEM medium (cat. 11995-065, Gibco) for 24 hours.

[2] = tested on: human adipose-derived mesenchymal stem cells (AD-MSC); experiment: CCK-8 assay, cytotoxicity in AD-MSC; format: cell-based; conditions: different concentrations, after 7 days, FIG. 3
Description: as §1

| Compound | toxicity (CCK-8 activity) [1] | toxicity (CCK-8 activity) [2] |
| --- | --- | --- |
| N[C@@H](CCC(=O)O)C(=O)N[C@@H](CC(=O)O)C(=O)N[C@@H](CC(=O)O)C(=O)O [Peptide-2, EDD] (H-Glu-Asp-Asp-OH) | did not exhibit toxicity | – |
| KRRRKRK [Peptide-1, KRRRKRK] | did not exhibit toxicity | did not exhibit toxicity |
